Assay results as given in publication PMC12311895, “Single-Molecule Protein Interactions and Unfolding Revealed by Plasmon-Enhanced Fluorescence” (Analytical Chemistry, 2025).

What was measured:
[1] = system: ATTO 532-PDZ decorated gold nanoparticles; experiment: stability of GNP-protein conjugate to urea (fluorescence of ATTO 532-PDZ on particles); settings: 4 M urea, 15 minutes, then exchanged for PBS; five particles, 532 nm laser
Method: Supplementary Figure 7. Fluorescence polarization curve of the interaction between MBP-PDZ (no DNA attached) ௣ ) + Aଶ , yields a Kd (x0) of 0.2 µM (p set to 1 and ATTO 655-labeled peptide. The fit (y =((Aଵ −Aଶ )/(1 + ቀ[௣௥௢௧௘௜௡ ]௄೏ ቁ to represent 1:1 binding). Measurement performed with 10 nM peptide in 10 mM HEPES pH 7.4, 150 mM NaCl, 0.1 v/v% Tween 20, 0.1 w/v% BSA, 1 mM DTT.
Supplementary Figure 8. Mean fluorescence intensities of five ATTO 532- PDZ decorated gold nanoparticles before and after exposure to 4 M urea. Immobilized particles were briefly imaged with a 532 nm laser before exposure to urea, with bare PBS in the bulk solution. Next, the laser was turned off, urea was added towards 4 M, and the sample was incubated for 15 minutes. Afterwards, the urea solution was exchanged for fresh PBS, the laser turned on, and fluorescence intensities measured again.
ATTO 532-labeled PDZ proteins remained on the particles.
(also on this page, place not known: inte raction =( (Aଵ −A ଶ)/(1 ቀ [௣௥௢௧௘௜௡] ௄೏ 350Polarization (mP) P1, before P1, after P2, before P2, after P3, before P3, after P4, before P4, after P5, before P5, after 8000Mean fluorescence intensity (counts))

[2] = system: PDZ (MBP-PDZ immobilized on gold nanorods); experiment: urea-mediated unfolding/refolding of immobilized PDZ, read out by peptide binding kinetics; assay type: biochemical
Description: Next, we employed the platform to monitor protein unfolding and refolding. […] After validating that the observed event rate decrease was not caused by protein dissociation from the GNPs (Supplementary Figure 8), we next characterized the concentration dependency of this urea-mediated PDZ unfolding (Figure B). The protein-peptide binding frequency, and thus PDZ conformational integrity, clearly decreases in a urea concentration-dependent manner.
3 Urea-mediated PDZ denaturation. […] (B) Left/blue data points: PDZ-peptide binding event frequencies at different urea concentrations. To prevent cumulative and/or time-mediated influences, measurements at each concentration were performed with a fresh sample. Error bars represent the effect of each sample’s Poisson distribution of the number of proteins per particle on the average binding frequencies. Right/green data points: PDZ-peptide binding event frequencies of a similar sample, after incubation at 6.4 M urea and subsequent removal thereof. (C) Bright-time distribution of the PDZ-peptide binding events at different urea concentrations. […] The 95% confidence interval is obtained by propagating 1.96 SE of the corresponding tb fits.
5 minute steps at 5000 rpm each). After each centrifugation step, supernatants were discarded, and pellets were re-dissolved (200 µL of 25 mM HEPES (pH 7.4) after the first spin step, 200 µL of milliQ after step 2 and 3, and 150 µL of 10 mM HEPES (pH 7.4) + 0.0025 w/v% Tween20 + 1 mM MgCl2 after step 4.
For each reaction, 5.0 µL of protein-DNA conjugate was added to a 150 µL particle solution as prepared above. Added protein-DNA concentrations varied from 250 pM to 2 µM depending on the desired number of proteins per particle.
Reactions were either incubated for 2 hours at room temperature (~21 °C), or overnight in the fridge (4 °C). After incubation, 1.5 µL of 20 w/v% BSA in PBS was added to each sample, following an additional 15 minutes of incubation.
Next, samples were washed using 4 centrifugal steps (5 minutes at 5000 rpm and 4 °C each). After each spin step, supernatants were removed, and particles were re-suspended using 10 mM HEPES pH 7.4, 0.0025 w/v% Tween20, 1 mM MgCl2, 0.2 w/v% BSA (150 µL after step 1-3, 75 µL after step 4).
Functionalized gold nanoparticle concentrations were determined through absorption measurements on a Thermo Scientific Nanodrop 2000 apparatus. Fluorescence spectroscopy-based protein quantifications were performed through fluorescence measurements on a Varioskan Lux platereader (500 nm excitation, 12nm bandwidth, low dynamic range, […]
Sample preparation for microscopy measurements
Glass microscopy slides (Menzel #1.5 24*40 mm) were sonicated in MeOH for 15 minutes, and blown dry using nitrogen gas afterwards. Next, slides were plasma treated for 1 minute. Imaging spacer stickers were added to the cleaned glass slides. Particles were diluted to OD = 0.1 (at 650 nm, 1 cm pathlength) in PBS, and for each sample 50 µL was pipetted into the imaging spacer. Samples were incubated for at least 5 minutes, after which the majority of particles were firmly immobilized. Depending on the measurement, samples were used as described, or briefly washed with PBS (unfolding/refolding measurements).
Fluorescence microscopy measurements
Samples were measured through fluorescence microscopy. The utilized setup’s main components consi sted of a Coherent OBIS 637 nm laser, Nikon eclipse Ti2 microscope body, Apo TIRF 60x 1.49 NA DIC N2 Oil objective, and Prime BSI Express CMOS camera. All measurements were performed using TIRF illumination. Sample and imaging conditions […]
Table S.2. Sample and imaging conditions per experiment.
Experiment/associated Laser power (mW): Exposure (ms): Labeled peptide
Figure(s): concentration (nM):
Kinetic analysis – 50 20 1 dissociation kinetics. Figure
Kinetic analysis: association 50 60 1 […]
Peptide and urea solutions were all prepared in PBS. […]

[3] = system: PDZ directly conjugated to gold nanorods; experiment: peptide binding to PDZ conjugated directly to gold nanorods via a cysteine linker; settings: direct conjugation to gold nanorods via cysteine linker, no DNA
Description: In this study we utilize single-crystalline GNPs (nanorods) to probe protein–protein interactions at the single-molecule level. To facilitate single-molecule studies the particles are immobilized onto a glass coverslip to enable the imaging of single nanoparticles. Before immobilization, we conjugated protein (PDZ) to the nanoparticles using a solution-phase protocol. We initially tried direct conjugation of PDZ to the gold nanorods via a cysteine linker. […] We then developed a DNA-mediated conjugation approach. This approach, through the rigid nature of double-stranded DNA, allows for control over the time-average distance between the proteins and the GNPs. This controlled distance is crucial, as it prevents a direct interaction between the protein and the gold, thereby preventing denaturation. Moreover, it still allows the proteins to be placed close to the gold nanorods, which facilitates potent fluorescence enhancement of the fluorescently labeled binding partners (Supplementary Figure 1).

[4] = biological target: T1, Erbin PDZ (MBP-PDZ immobilized on gold nanorods via DNA) (Homo sapiens, UniProt Q96RT1); experiment: single-molecule plasmon-enhanced fluorescence binding kinetics of PDZ-peptide interaction
T1 construct: Since neither the utilized PDZ domain nor MBP contains natural cysteines; single introduced cysteine in the linker between MBP and PDZ (handle for DNA coupling); host or cells: E. coli BL21(DE3)
T1 sequence (Q96RT1 1321-1410 limits assumed): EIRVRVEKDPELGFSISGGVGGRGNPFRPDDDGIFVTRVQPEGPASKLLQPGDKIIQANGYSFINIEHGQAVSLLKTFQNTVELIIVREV

[5] = system: PDZ; settings: reference number not printed at place (probably ref 20), cited from earlier work
Description: From a double-exponential fit we extracted characteristic bound-state lifetimes of 16 ± 1 and 83 ± 16 ms, corresponding to k off values of 61 ± 5 and 12 ± 3 s^–1. The slow dissociation rate constant is similar to previously reported values for the same interaction with immobilized peptides (k off ≈ 6.3 s^–1). […] The underlying molecular mechanism leadi ... || In order to quantify association kinetics and related particle-to-particle differences, analysis is based on the average dark time (t d ) in between events (unbound-state lifetime). Together with the number of proteins per particle (n), and the concentration of the labeled peptide solution (c i ), it follows that kon=1/tdcin . The binding event frequency’s dependency on the number of proteins per particle was assessed through several measurements, using particle preparations with different average numbers of proteins per particle (Figure .D). Herein, a control sample (DNA decorated, 0 proteins ...

[6] = unspecific binding of labeled peptide to DNA-coated gold nanoparticles without protein (negative control); settings: DNA decorated, 0 proteins per particle; 60 ms exposure, 1 nM labeled peptide in PBS
Description: 2 Characterization of the PDZ-peptide binding interactions. (A) Typical microcopy FOV of the immobilized gold nanoparticles. Each FOV (∼ 43 μm by 43 μm) typically contains around 100 stochastically immobilized particles, yielding average interparticle distances of several micrometers. A time trace of one of the gold nanoparticles is shown, on which the peptide–protein binding events can be seen as fluorescence bursts. An expanded region of the time trace showcases a few examples of individual bright-times and dark-times. (B) Typical signals obtained from peptide binding on a gold nanorod (blue) and on the glass (red). (C) Plot depicting the distribution of bright times (bound-state lifetimes) of the protein-peptide interactions, based on all recorded particles. […]
In order to quantify association kinetics and related particle-to-particle differences, analysis is based on the average dark time (t d ) in between events (unbound-state lifetime). […] The binding event frequency’s dependency on the number of proteins per particle was assessed through several measurements, using particle preparations with different average numbers of proteins per particle (Figure .D). […] Dim fluorescence signals that would have been lost in unenhanced studies can now readily be detected, giving rise to more accurate event detection, and thus, a more representative k on value.

Molecule | fluorescence intensity of ATTO 532-PDZ decorated particles after urea exposure [1] | average PDZ-peptide binding event frequency at 0.2 M urea ([2]; 0.2 M urea, 2 nM labeled peptide in PBS, within Poisson distribution) | time for refolding of PDZ after urea removal ([2]; after 6.4 M urea, time required for fluid exchange and initiation of imaging) [min] | k off values at different urea concentrations ([2]; based on dominant short lifetimes of double exponential fits, 2 nM labeled peptide in PBS, 40 ms exposure) | bound-state lifetimes for increasing urea concentrations ([2]; bright time distributions, 2 nM labeled peptide in PBS, 40 ms exposure) | PDZ-peptide binding frequency after removal of urea (refolding) ([2]; pre-incubation with 6.4 M urea for 20 minutes, then washed, 2 nM labeled peptide in PBS) | occurrence of PDZ-peptide interactions at 4.0 M urea ([2]; time traces of a particle before and after 4.0 M urea, 2 nM labeled peptide in PBS) | peptide binding of directly conjugated PDZ [3] | distribution of bound-state lifetimes ([4]; all particles (Figure 2C), also on single particles (Supplementary Figure 6)) | characteristic bound-state lifetime, short component ([4]; double-exponential fit of bright times, all recorded particles, 20 ms exposure, 50 mW 637 nm laser, TIRF, 1 nM labeled peptide in PBS) [ms] | characteristic bound-state lifetime, long component ([4]; double-exponential fit of bright times, all recorded particles, 20 ms exposure, 50 mW 637 nm laser, TIRF, 1 nM labeled peptide in PBS, less frequent events) [ms] | k on ([4]; linear fit of event frequency vs average number of proteins per particle, kon=1/tdcin, 60 ms exposure, 50 mW, 1 nM labeled peptide in PBS) | slope of binding event frequency vs number of proteins per particle ([4]; linear fit, intercept 0, 60 ms exposure, 1 nM labeled peptide in PBS) [mHz/protein] | k on (previously reported) ([5]; PAINT experiments) | k off (previously reported) ([5]; same interaction with immobilized peptides, integration time 60 ms) | event frequency on control particles (unspecific binding) [6] [mHz]
NC(N)=O [urea] | no reduced fluorescence intensities | slight increase | ≤ 1 | no significant deviations | did not significantly change | recovered toward initial levels | terminates the occurrence of PDZ-peptide interactions |  |  |  |  |  |  |  |  | 
H-[C(ATTO655)]GAGRGSIDTWV-OH [ATTO 655-labeled peptide, Atto-655 labeled peptide purchased from SB Peptide] |  |  |  |  |  |  |  | no peptide binding | double exponential | 16 ± 1 | 83 ± 16 | (1.2 ± 0.1) × 10^7 M^–1 s^–1 | 12 | ≈ 3.6 × 10^5 M^–1 s^–1 | ≈ 6.3 s^–1 | 2
